Tests used:
[1] = DPPH radical scavenging effect; type: biochemical
Protocol: Resveratrol 3-O-α-glucoside was dissolved in water to a concentration of 100, 250, 500, or 1000 μmol/L, and the resulting solution was used as a sample solution.
In 10 mL of ethanol, 2 mg of 2,2-diphenyl-1-picrylhydrazyl (Wako Pure Chemical Industries, Ltd.) was dissolved, and the resulting solution was used as the DPPH solution.
Using each of the solutions prepared as above, the DPPH radical scavenging effect was evaluated in accordance with the following procedures. One-hundred microliters of the sample solution, 500 μL, of the DPPH solution, 250 μL of a […] MES (2-morpholinoethanesulfonic acid) buffer, and 150 μL of distilled water were mixed and reacted at 30° C. for 30 minutes. The absorbance at 517 nm was subsequently measured. Further, distilled water (control solution) was used instead of the sample solution, and the absorbance at 517 nm was measured under the same conditions as described above. From the measured value of absorbance, the DPPH radical scavenging ratio was determined in accordance with the equation shown below. DPPH radical scavenging ratio (%)=(A−B)/A×100 [Equation 2]

[2] = system: hyaluronidase (from bovine testes); experiment: Hyaluronidase inhibitory effect; type: biochemical; conditions: pH 4.0, 37° C., 40 minutes
Protocol: The following sample solution, enzyme solution, and hyaluronic acid solution were prepared.
Resveratrol 3-O-α-glucoside was dissolved in a 0.2 M acetate buffer solution (pH 4.0) to a concentration of 0.025 or 0.1 wt %, and the resulting solution was used as a sample solution.
In 1.5 mL of a 0.2 M acetate buffer solution (pH 4.0), 7400 units of hyaluronidase (from bovine testes; Sigma-Aldrich Co. LLC.) were dissolved, and the resulting solution was used as the enzyme solution.
In 12.5 mL of a 0.2 M acetate buffer solution (pH 4.0), 10 mg of sodium hyaluronate (from crista galli; Wako Pure Chemical Industries, Ltd.) was dissolved, and the resulting solution was used as the hyaluronic acid solution.
Using each of the solutions prepared as above, the hyaluronidase inhibitory effect was evaluated in accordance with the following procedures. One-hundred microliters of the sample solution, 50 μL of the enzyme solution, and 200 μL of the hyaluronic acid solution were mixed and reacted at 37° C. for 40 minutes. Then, 100 μL each of a 0.4 M aqueous solution of sodium hydroxide and a 1 M aqueous solution of potassium borate were added to the mixture, and the reaction was stopped. […] The absorbance at 585 nm was subsequently measured. From the measured value of absorbance, the hyaluronidase inhibition ratio was determined in accordance with the equation shown below. […]

[3] = system: matrix metalloproteinase 9 (MMP9) gene; experiment: MMP9 gene expression in normal human dermal fibroblasts; type: cell-based; conditions: 0.001 wt %, 24 hours, control = 100%
Protocol: Using normal human dermal fibroblasts, the effect of resveratrol 3-O-α-glucoside on matrix metalloproteinase 1 (MMP1) and 9 (MMP9) genes in the dermis was investigated.
Normal human dermal fibroblasts were seeded into 12-well culture plates at 9×10^4 cells per well. As the medium, 10 vol % FBS (Fetal Bovine Serum)-containing DMEM medium (basal medium) was used, and the cells were preincubated in 5% CO2 at 37° C. for 24 hours. The medium was removed and then replaced with a basal medium supplemented with 0.001 wt % of resveratrol 3-O-α-glucoside, and the cells were cultured in 5% CO2 at 37° C. After 24 hours, total RNA was extracted from the cells, and the levels of expression of the MMP1 and MMP9 genes were quantified by real time PCR. As a control group, cells were cultured without resveratrol 3-O-α-glucoside, and total RNA collected from these cells was used.
Taking as 100% the level of expression of each of the MMP1 and MMP9 genes for the control group, a relative ratio of the expression level of each of the MMP1 and MMP9 genes for the resveratrol 3-O-α-glucoside-supplemented group (MMP1 and MMP9 gene expression ratios, %) was determined. In the measurement of the expression level of each of the MMP1 and MMP9 genes, GAPDH (glyceraldehyde 3-phosphate dehydrogenase) was used for internal standard correction.

IL-1β gene = experiment: Anti-inflammatory effect: IL-1β gene expression after Poly I:C-induced inflammation; type: cell-based; conditions: normal human epidermal keratinocytes, Poly I:C 1 μg/mL 9 hours, then 0.001 wt % for 15 hours; control = 100%, comparative group (Poly I:C only) 1210
Protocol: Normal human epidermal keratinocytes were seeded into 12-well culture plates at 5×10^4 cells per well. As the medium, EpiLife KG-2 medium supplemented with insulin, the human […] growth factor (hEGF), hydrocortisone, anti-microbial agents, and bovine pituitary extract (BPE) was used (basal medium), and the cells were preincubated in 5% CO2 at 37° C. for 48 hours. Further, the cells were incubated for additional 48 hours in a medium obtained by removing hydrocortisone only from the basal medium (assay medium). Next, the medium was replaced with an inflammation-inducing medium obtained by supplementing the assay medium with Poly I:C (double strand of inosine ribonucleotide and cytidine ribonucleotide strands) to a concentration of 1 μg/mL, and the cells were cultured for 9 hours, thus preparing an inflammation model. […] After the culture, total RNA was extracted from the cells, and the level of expression of the proinflammatory cytokine IL-1β gene was quantified by real time PCR. […]
Taking as 100% the level of expression of the IL-1β gene for the control group, a relative ratio of the expression level of the IL-1β gene for each of the comparative group and the resveratrol 3-O-α-glucoside-supplemented group (IL-1β gene expression ratio, %) was calculated. […]

tyrosinase = conditions: Non-Patent Literatures 1 and 2; cited from earlier work

| Structure (SMILES) | DPPH Radical Scavenging Ratio (%) ([1]; 100 μmol/L in the sample solution) | DPPH Radical Scavenging Ratio (%) ([1]; 250 μmol/L in the sample solution) | DPPH Radical Scavenging Ratio (%) ([1]; 500 μmol/L in the sample solution) | DPPH Radical Scavenging Ratio (%) ([1]; 1000 μmol/L in the sample solution) | Hyaluronidase Inhibition Ratio (%) ([2]; 0.025 wt % in the sample solution) | Hyaluronidase Inhibition Ratio (%) ([2]; 0.1 wt % in the sample solution) | MMP9 Gene Expression Ratio (%) [3] [%] | IL-1β Gene Expression Ratio (%) (IL-1β gene) | tyrosinase inhibitory effect compared to resveratrol (tyrosinase) |
| --- | --- | --- | --- | --- | --- | --- | --- | --- | --- |
| OC[C@H]1O[C@H](Oc2cc(O)cc(C=Cc3ccc(O)cc3)c2)[C@H](O)[C@@H](O)[C@@H]1O [Resveratrol 3-O-α-Glucoside, resveratrol 3-O-α-glucoside] | 13 | 30 | 50 | 75 | 7.6 | 20.6 | 45 | 885 |  |
| OC[C@H]1O[C@@H](Oc2cc(O)cc(/C=C/c3ccc(O)cc3)c2)[C@H](O)[C@@H](O)[C@@H]1O [Resveratrol 3-O-β-Glucoside, resveratrol 3-O-β-glucoside] |  |  |  |  |  |  |  |  | inferior |
